Measurements taken from BindingDB's records for doi:10.1016/j.bmcl.2014.04.013 (University of Utah, 2014).

Assay: Agonist activity at AHR in FVB/N mouse primary mammary epithelial cells assessed as blockade of mammary branching morphogenesis after 144 hrs by microscopic analysis in presence of FGF2

| EC50 [µM] | Structure (SMILES) |
| --- | --- |
| 1.2 | Clc1ccc(-c2nc(-c3ccccc3)no2)c(Cl)c1 |
| > 10 | Clc1ccc(-c2nc(-c3ccccc3)no2)c(Cl)c1Cl |
| 3.2 | Nc1cc(C(F)(F)F)ccc1-c1nc(-c2ccccc2)no1 |
| 2.2 | O=[N+]([O-])c1cc(F)ccc1-c1nc(-c2ccccc2)no1 |
| 1.4 | Nc1cc(Cl)ccc1-c1nc(-c2ccccc2)no1 |
